± gives the standard deviation of the reports.
Question: For `*C(=O)Nc1ccc(NC(=O)c2ccc3c(c2)C(=O)N(c2cc(-c4nc5ccccc5s4)cc(N4C(=O)c5ccc(*)cc5C4=O)c2)C3=O)cc1` (repeat unit), which glass transition temperature is on record?
Answer: 356.00 °C

Question: Which glass transition temperature does the source give for `*O[Si](*)(C)CCCOCC1COC(=O)O1` (repeat unit) here?
Answer: -25.90 °C

Question: Which glass transition temperature does the source give for `*Sc1ccc(P(=O)(c2ccccc2)c2ccc(Sc3ccc(-c4ccc(*)cc4)cc3)cc2)cc1` (repeat unit) here?
Answer: 232.00 °C

Question: For `*c1ccc(-c2cc(-c3ccc(OCCCCCC)cc3)cc(-c3ccc(-c4ccc5c(c4)C(CCCCCC)(CCCCCC)c4cc(*)ccc4-5)cc3)c2-c2ccc(OCCCCCC)cc2)cc1` (repeat unit), which glass transition temperature is on record?
Answer: 118.00 °C

Question: With `*CCCCCCOC(=O)NCc1ccc(CNC(=O)O*)cc1` (repeat unit) as the molecule, how does the glass transition temperature read?
Answer: 56.00 °C

Question: Which glass transition temperature does the source give for `*CC(*)C(=O)OCCCCSC` (repeat unit) here?
Answer: -70.00 °C

Question: Which glass transition temperature does the source give for `*CC(*)(CC(=O)OCCCCC)C(=O)OCCCCC` (repeat unit) here?
Answer: 2.00 °C

Question: Which glass transition temperature does the source give for `*Nc1ccc(CC(C)(C)NC(=O)CCCCC(*)=O)cc1` (repeat unit) here?
Answer: 130.00 °C

Question: Which glass transition temperature does the source give for `*CC(C)(C)C1C(=O)N(c2ccccc2C)C(=O)C1*` (repeat unit) here?
Answer: 207.00 °C

Question: With `*CC(CCCCCCOc1ccc(/N=N/c2ccc(C#N)cc2)cc1)COC(=O)CCCCCCCCCCCCC(=O)O*` (repeat unit) as the molecule, how does the glass transition temperature read?
Answer: 21.50 °C

Question: With `*CCCCCCOc1ccc(N(c2ccccc2)c2ccc(-c3ccc(N(c4ccccc4)c4ccc(O*)cc4)cc3)cc2)cc1` (repeat unit) as the molecule, how does the glass transition temperature read?
Answer: 85.00 °C

Question: With `*C1(F)OC(C(F)(F)F)(C(F)(F)Cl)OC1(*)F` (repeat unit) as the molecule, how does the glass transition temperature read?
Answer: 330.00 °C

Question: With `*O[Si](*)(CCCOCCOCCOCCOCCOCCOCCOCCOC)CCCOCCOCCOCCOCCOCCOCCOCCOC` (repeat unit) as the molecule, how does the glass transition temperature read?
Answer: -66.40 °C

Question: Which glass transition temperature does the source give for `*Oc1ccc(C2(c3ccc(OC(=O)OC4C(C)(C)C(OC(*)=O)C4(C)C)cc3)CC3CCC2C3)cc1` (repeat unit) here?
Answer: 184.00 °C

Question: For `*C(=O)Nc1ccc(C2(c3ccc(NC(=O)c4ccc5c(c4)C(=O)N(c4ccc(Oc6ccc(N7C(=O)c8ccc(*)cc8C7=O)cc6)cc4)C5=O)cc3)c3ccccc3-c3ccccc32)cc1` (repeat unit), which glass transition temperature is on record?
Answer: 240.00 °C

Question: With `*CCCCCCN1C(=O)C(=O)N(c2ccc(Cc3ccc(N4C(=O)C(=O)N(*)C4=O)cc3)cc2)C1=O` (repeat unit) as the molecule, how does the glass transition temperature read?
Answer: 158.00 °C

Question: With `*O[Si](*)(CCCOCCOCCOCCOC)CCCOCCOCCOCCOC` (repeat unit) as the molecule, how does the glass transition temperature read?
Answer: -69.20 °C

Question: Which glass transition temperature does the source give for `*CC(OO*)c1ccc(C(C)(C)C)cc1` (repeat unit) here?
Answer: 19.90 °C

Question: For `*c1ccc(C(c2ccccc2)c2ccc(-n3c(=O)c4cc5c(=O)n(*)c(=O)c5cc4c3=O)cc2)cc1` (repeat unit), which glass transition temperature is on record?
Answer: 321.00 °C

Question: Which glass transition temperature does the source give for `*O[Si](C)(CCC(F)(F)F)CCC(F)(F)C(F)(F)C(F)(F)C(F)(F)CC[Si](*)(C)CCC(F)(F)F` (repeat unit) here?
Answer: -25.00 °C

Question: With `*c1ccc(Oc2ccc(C(=O)c3ccc(Oc4ccc(-c5c6c(c(*)c7ccccc57)C(=O)N(c5ccc(Cl)cc5)C6=O)cc4)cc3)cc2)cc1` (repeat unit) as the molecule, how does the glass transition temperature read?
Answer: 272.00 °C

Question: For `*c1cc(C(=O)NCCCCCCCCCCCC)cc(N2C(=O)c3ccc(-c4ccc5c(c4)C(=O)N(*)C5=O)cc3C2=O)c1` (repeat unit), which glass transition temperature is on record?
Answer: 243.10 °C

Question: Which glass transition temperature does the source give for `*CC(*)c1ccc(COCC(CC)CCCC)cc1` (repeat unit) here?
Answer: -23.00 °C

Question: Which glass transition temperature does the source give for `*c1ccc(Oc2ccc(N3C(=O)C(Cl)=C(Oc4ccc(C(c5ccc(OC6=C(Cl)C(=O)N(*)C6=O)cc5)(C(F)(F)F)C(F)(F)F)cc4)C3=O)cc2)cc1` (repeat unit) here?
Answer: 193.00 °C

Question: With `*c1cc(-c2sc(-c3cc(CCCCCCCCCCCCCC)c(*)s3)cc2CCCCCCCCCCCCCC)c2cccccc1-2` (repeat unit) as the molecule, how does the glass transition temperature read?
Answer: -10.00 °C

Question: Which glass transition temperature does the source give for `*OC(=O)OCCOCCOCCOCCOC(=O)OC1COC2C(*)COC12` (repeat unit) here?
Answer: 9.50 °C

Question: For `*c1ccc2c(c1)C(=O)N(c1cccc(Oc3cccc(N4C(=O)c5ccc(C(*)(C(F)(F)F)C(F)(F)F)cc5C4=O)c3)c1)C2=O` (repeat unit), which glass transition temperature is on record?
Answer: 244.00 °C

Question: For `*OC(=O)Nc1ccc(C)c(NC(=O)OC2CCN(c3ccc(/C=C/C4=CC(=C(C#N)C#N)C=C(/C=C/c5ccc(N6CCC(*)CC6)s5)O4)s3)CC2)c1` (repeat unit), which glass transition temperature is on record?
Answer: 212.00 °C

Question: For `*Oc1ccc(C2(c3ccc(OC(=O)c4ccc(Oc5ccc(C6(c7ccc(Oc8ccc(C(*)=O)cc8)cc7)CCC(C(C)(C)C)CC6)cc5)cc4)cc3)C3CC4CC(C3)CC2C4)cc1` (repeat unit), which glass transition temperature is on record?
Answer: 197.00 °C

Question: Which glass transition temperature does the source give for `*c1ccc2c(c1)C(=O)N(c1ccc(C(c3ccccc3)(c3ccc(N4C(=O)c5ccc(C(*)(C(F)(F)F)C(F)(F)F)cc5C4=O)cc3)C(F)(F)F)cc1)C2=O` (repeat unit) here?
Answer: 305.00 °C

Question: For `*CC(=O)Nc1ccc(Oc2ccc(C(C)(C)c3ccc(Oc4ccc(NC(=O)CN5C(=O)c6ccc(C(c7ccc8c(c7)C(=O)N(*)C8=O)(C(F)(F)F)C(F)(F)F)cc6C5=O)cc4)cc3)cc2)cc1` (repeat unit), which glass transition temperature is on record?
Answer: 224.00 °C

Question: With `*c1ccc2cc3cc(-c4sc(-c5cc(CCCCCCCCCCCC)c(*)s5)cc4CCCCCCCCCCCC)ccc3cc2c1` (repeat unit) as the molecule, how does the glass transition temperature read?
Answer: 158.00 °C

Question: For `*Oc1ccc(S(=O)(=O)c2ccc(Oc3c(C)cc(C(c4cc(C)c(*)c(C)c4)(C(F)(F)F)C(F)(F)F)cc3C)c(Br)c2)cc1Br` (repeat unit), which glass transition temperature is on record?
Answer: 230.80 °C

Question: With `*CCCCC(=O)Oc1ccc(OC(=O)c2ccc3c(c2)C(=O)N(*)C3=O)c(C)c1` (repeat unit) as the molecule, how does the glass transition temperature read?
Answer: 75.76 °C

Question: Which glass transition temperature does the source give for `*CC(*)(C)C(=O)OCCC` (repeat unit) [Poly(n-propyl methacrylate) ] here?
Answer: 35 ± 5.4 °C

Question: Which glass transition temperature does the source give for `*CC(*)(C)C(=O)OC1CCCCC1C(C)(C)C` (repeat unit) here?
Answer: 185.00 °C

Question: With `*CC(*)(C)C(=O)OCCCCCCOc1ccc(/N=N/c2ccc([N+](=O)[O-])cc2)cc1` (repeat unit) as the molecule, how does the glass transition temperature read?
Answer: 108.00 °C

Question: With `*CC1CCCC(COC(=O)c2ccc(C(=O)O*)cc2)C1` (repeat unit) as the molecule, how does the glass transition temperature read?
Answer: 75.00 °C

Question: With `*CCCN1C(=O)c2ccc(C(c3ccc4c(c3)C(=O)N(*)C4=O)(C(F)(F)F)C(F)(F)F)cc2C1=O` (repeat unit) as the molecule, how does the glass transition temperature read?
Answer: 190.00 °C

Question: With `*CC(*)C(=O)Oc1ccccc1C(=O)OCC` (repeat unit) as the molecule, how does the glass transition temperature read?
Answer: 30.00 °C

Question: For `*c1ccc(Oc2ccc(C(C)(C)c3ccc(Oc4ccc(-c5nnc(*)c6c(-c7ccccc7)c(-c7ccc8ccccc8c7)c(-c7ccc8ccccc8c7)c(-c7ccccc7)c56)cc4)cc3)cc2)cc1` (repeat unit), which glass transition temperature is on record?
Answer: 290.00 °C

Question: With `*CCC1C[N+](C)(C)CC1*` (repeat unit) as the molecule, how does the glass transition temperature read?
Answer: -6.70 °C

Question: For `*c1ccc(Oc2cc(C(C)(C)C)c(Oc3ccc(-n4c(=O)c5cc6c(=O)n(*)c(=O)c6cc5c4=O)cc3)cc2C(C)(C)C)cc1` (repeat unit), which glass transition temperature is on record?
Answer: 298.00 °C

Question: With `*CCOCCOCCOCCOC(=O)NCCCCCCNC(=O)O*` (repeat unit) as the molecule, how does the glass transition temperature read?
Answer: -17.00 °C

Question: For `*CC(CS(=O)(=O)C(C)C)O*` (repeat unit), which glass transition temperature is on record?
Answer: 64.00 °C

Question: With `*Oc1ccc(/C=C2\CC/C(=C\c3ccc(OC(=O)c4ccc(/N=C/c5ccc(/C=N/c6ccc(C(*)=O)cc6)cc5)cc4)cc3)C2=O)cc1` (repeat unit) as the molecule, how does the glass transition temperature read?
Answer: 205.00 °C

Question: For `*Oc1ccc(OC(=O)c2ccc(C(C)(C)c3ccc(C(*)=O)cc3)cc2)cc1` (repeat unit), which glass transition temperature is on record?
Answer: 195.00 °C

Question: With `*CCCCCCCOC(=O)NCCCCCCNC(=O)O*` (repeat unit) as the molecule, how does the glass transition temperature read?
Answer: 55.00 °C

Question: Which glass transition temperature does the source give for `*CCOP(=O)(/N=N/c1ccc(Oc2ccc(/N=N/P(=O)(O*)OCC)cc2)cc1)OCC` (repeat unit) here?
Answer: 22.00 °C

Question: For `*Oc1c(-c2ccccc2)cc(-c2cc(-c3ccccc3)c(OC(=O)CCCCCCCCC(*)=O)c(-c3ccccc3)c2)cc1-c1ccccc1` (repeat unit), which glass transition temperature is on record?
Answer: 98.00 °C

Question: With `*Oc1ccc(C(C)(C)c2ccc(OC(=O)c3ccc(C(*)=O)cc3)cc2)cc1` (repeat unit) [Poly(Bisphenol A terephthalate)] as the molecule, how does the glass transition temperature read?
Answer: 199.92 ± 1.5 °C

Question: For `*CC(*)C(=O)Oc1ccccc1` (repeat unit), which glass transition temperature is on record?
Answer: 60.00 °C

Question: With `*C(=O)Oc1ccc(C2(c3ccc(OC(=O)c4ccc5c(c4)C(=O)N(c4ccc(-c6ccc(N7C(=O)c8ccc(*)cc8C7=O)cc6C)c(C)c4)C5=O)cc3)CC3CC2C2CCCC32)cc1` (repeat unit) as the molecule, how does the glass transition temperature read?
Answer: 226.00 °C

Question: For `*CCCCCCCCNC(=O)CCCCC(=O)N*` (repeat unit), which glass transition temperature is on record?
Answer: 50.00 °C

Question: With `*c1ccc(NC(=O)c2ccc(NC(=O)c3ccc([Si](C)(C)c4ccc(C(=O)Nc5ccc(C(=O)Nc6ccc(S(*)(=O)=O)cc6)cc5)cc4)cc3)cc2)cc1` (repeat unit) as the molecule, how does the glass transition temperature read?
Answer: 315.00 °C

Question: With `*c1ccc(C(C#N)(C(=O)OCC(C)C)C(*)(C#N)C(=O)OCC(C)C)cc1` (repeat unit) as the molecule, how does the glass transition temperature read?
Answer: 108.00 °C

Question: For `*Oc1ccc(Oc2ccc(C(=O)c3ccc(*)cc3)cc2)cc1C(C)(C)C` (repeat unit), which glass transition temperature is on record?
Answer: 177.00 °C

Question: Which glass transition temperature does the source give for `*c1ccc(Oc2ccc(S(=O)(=O)c3ccc(Oc4ccc(-c5c6c(c(*)c7ccccc57)C(=O)N(c5ccccc5)C6=O)cc4)cc3)cc2)cc1` (repeat unit) here?
Answer: 310.00 °C

Question: Which glass transition temperature does the source give for `*c1cccc(N/C=C/C(=O)c2cccc(C(=O)/C=C/Nc3cccc(S(*)(=O)=O)c3)c2)c1` (repeat unit) here?
Answer: 215.00 °C

Question: Which glass transition temperature does the source give for `*CC(*)(C)C(=O)OCCCCCCOc1ccc(/N=N/c2ccc(OCCCC)cc2)cc1` (repeat unit) here?
Answer: 79.00 °C

Question: Which glass transition temperature does the source give for `*CCCCCOC(=O)Nc1ccc(Cc2ccc(NC(=O)O*)cc2)cc1` (repeat unit) here?
Answer: 95.00 °C

Question: Which glass transition temperature does the source give for `*CCCCCCCOc1ccc(-c2ccc(O*)c3ccccc23)c2ccccc12` (repeat unit) here?
Answer: 129.50 °C

Question: For `*c1cccc(-c2nc3cc(-c4ccc5[nH]c(*)nc5c4)ccc3[nH]2)c1` (repeat unit), which glass transition temperature is on record?
Answer: 410.00 °C

Question: For `*C(=O)Nc1cccc(NC(=O)c2ccc3[nH]c(-c4cccc(-c5nc6cc(*)ccc6[nH]5)c4)nc3c2)c1` (repeat unit), which glass transition temperature is on record?
Answer: 297.50 °C

Question: Which glass transition temperature does the source give for `*Sc1cc(C)c(*)cc1C` (repeat unit) here?
Answer: 298.00 °C

Reference: the PolyMetriX glass transition set
